Experimental data as given in ChEMBL document CHEMBL1137881, “Synthesis of acyloxymethyl ester prodrugs of the transferable protein farnesyl transferase substrate farnesyl methylenediphosphonate” (Bioorg Med Chem Lett, 2004).

Columns and labels:
Type in all cases: protein-complex assay
[1] = target: T1, Protein farnesyltransferase (Homo sapiens) (UniProt P49354+P49356); experiment: Ratio of Kcat to Km for farnesyltransferase
[2] = target: T1, Protein farnesyltransferase (Homo sapiens); experiment: Catalytic constant against Farnesyltransferase
[3] = system: CC(C)=CCC/C(C)=C/CC/C(C)=C/COP(=O)(O)CP(=O)(O)O; experiment: (§1) Michaelis-Menten constant against Farnesyltransferase
[4] = system: CC(C)=CCC/C(C)=C/CC/C(C)=C/COP(=O)(O)OP(=O)(O)O; experiment: as §1

Row | Compound | Ratio [1] [M⁻¹ s⁻¹] | K cat [2] [s⁻¹] | Km [3] [µM] | Km [4] [µM]
1 | CC(C)=CCC/C(C)=C/CC/C(C)=C/COP(=O)(O)OP(=O)(O)O | 2e+06 | 0.09 | – | –
2 | CC(C)=CCC/C(C)=C/CC/C(C)=C/COP(=O)(O)CP(=O)(O)O | 300000 | 0.06 | – | –
3 | Protein farnesyltransferase (Homo sapiens) (from UniProt P49354+P49356) | – | – | 0.18 | 0.04
